Earlier results as cited in US20170140533A1, “SYSTEM AND METHOD FOR AUTOMATED DETECTION AND MONITORING OF DYSPLASIA AND ADMINISTRATION OF IMMUNOTHERAPY AND CHEMOTHERAPY” (VISIONGATE, INC., priority 2015, published 2017).

Key:
[1] = system: immune response in SSc patients
[2] = system: T cells; settings: in vitro

CC#CCC(C)[C@H](O)/C=C/[C@@H]1[C@H]2C/C(=C/CCCC(=O)O)C[C@H]2C[C@H]1O (stereo partly drawn) [Iloprost]
IFN gamma production ([1]; SSc patients): No effect | T regulatory cells number ([1]; SSc patients): reduces | serum IL-2 ([1]; SSc patients, serum): increases | T regulatory cells activity ([1]; after immune stimulation): increases | persistence of serum IL-2 increase after the last infusion ([1]; after the last infusion): 28 days | RANKL ([1]; in vivo): increased | T cell and TNF alpha production ([1]; in vivo, SSc patients): reduces | RANKL [2]: increased | T cell and TNF alpha production [2]: reduces
